Experimental data as given in patent EP4737449A1 (Changchun Genescience Pharmaceutical Co., Ltd., priority 2023, dated 2025).

How the values were obtained:
NUGC-3 cells = assay: NUGC-3 cell proliferation assay (CTG, 7 days); assay type: cell-based, human; conditions: Homo sapiens, NUGC-3, 168 h, NUGC-3 cell proliferation, 7 days, CTG; read-out: IC50
Procedure: The cells were cultured in strict accordance with ATCC requirements.
Cell culture medium: 1640 culture medium, 10% serum, 1% penicillin + streptomycin.
Culture conditions: 37°C, 95% air, 5% carbon dioxide.
Compounds (20 mM) were subjected to gradient dilution in DMSO: 10 gradients, 3-fold dilution, duplicate wells.
Positive and negative controls (100% dimethyl sulfoxide) were prepared.
The compounds that were gradient diluted with DMSO and positive and negative controls (1st and 2nd step), each 75 nL, were transferred to 384-well cell culture plates by Echo550.
The cells were washed twice with PBS, digested with trypsin, and centrifuged for cell counting.
The experiment can only be carried out when the cell viability is above 90%.
The cells were plated into 384-well cell culture plates, with 200 (NUGC-3) cells and 30 µL of culture medium per well.
The 384-well microplate was placed in a cell culture incubator for 7 days.
30 µL of CTG detection reagent was added to the 384-well microplate.
The 384-well microplate was incubated for 30 min at 37°C, 5% carbon dioxide in the dark.
The reading was performed by a multi-functional microplate reader Envision.
% Inhibition is calculated as follows: % Inhibition = 100−(Signalcmpd−SignalAve_BL)/(SignalAve_VC−SignalAve_BL)*100 [formula] • Signalcmpd: Average signal of the compound in the cell plate • Signalave_vc: Average signal of the negative control in the cell plate • Signalave_BL: Average signal of the blank wells in the cell plate
IC50 was calculated by fitting % inhibition and compound concentration logarithmically to a nonlinear regression (dose response - variable slope) using Graphpad 8.0. Table 2 IC50 of selected compounds in NUGC-3 cell proliferation assay

p53-Y220C mutant protein = molecular target: T1, p53-Y220C mutant protein (Homo sapiens, UniProt P04637, Y220C); assay: In vitro DNA binding activity assay (TR-FRET); assay type: biochemical; conditions: concentration required to increase the binding activity of protein to DNA by 50%
T1 construct: The recombinant Y220C p53 DBD protein with his-tag
How it was run: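 SC150, the compound concentration increasing p53-Y220C DNA binding by 50% relative to vehicle, came from background-corrected 665/615 nm TR-FRET ratios. His-tagged DBD and compound were preincubated 60 min at RT before biotin-DNA plus Eu-anti-His/streptavidin-d2 detection overnight in the dark.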

Structure (SMILES) | IC50 (NUGC-3 cells) [nM] | SC150 (p53-Y220C mutant protein) [nM]
CN1CC[C@@H](Nc2cccc3c(CC(F)(F)F)c(C#CCNC(=O)c4cc(F)n(C)c4)nn23)[C@@H](F)C1 [Compound 312, 5-fluoro-N-[3-(7-{[(3S,4R)-3-fluoro-1-methylpiperidin-4-yl]amino}-3-(2,2,2-trifluoroethyl)pyrazolo[1,5-a]pyridin-2-yl)prop-2-yn-1-yl]-1-methyl-1H-pyrrole-3-carboxamide] | 1460 | 19
CN1CC[C@@H](Nc2cccc3c(CC(F)(F)F)c(C#CCNC(=O)c4ccn(C5(C)CC5)c4)nn23)[C@@H](F)C1 [Compound 313, N-[3-(7-{[(3S,4R)-3-fluoro-1-methylpiperidin-4-yl]amino}-3-(2,2,2-trifluoroethyl)pyrazolo[1,5-a]pyridin-2-yl)prop-2-yn-1-yl]-1-(1-methylcyclopropyl)-1H-pyrrole-3-carboxamide] | 1370 | 28
CN1CC[C@@H](Nc2cccc3c(CC(F)(F)F)c(C#CCNC(=O)c4ccc(N5CCC5)nc4)nn23)[C@@H](F)C1 [Compound 314, 6-(azetidin-1-yl)-N-[3-(7-{[(3S,4R)-3-fluoro-1-methylpiperidin-4-yl]amino}-3-(2,2,2-trifluoroethyl)pyrazolo[1,5-a]pyridin-2-yl)prop-2-yn-1-yl]-3-nicotinamide] | 1200 | 35
CN1CC[C@@H](Nc2cccc3c(CC(F)(F)F)c(C#CCNC(=O)c4ccc(N5CCCC5)nc4)nn23)[C@@H](F)C1 [Compound 315, N-[3-(7-{[(3S,4R)-3-fluoro-1-methylpiperidin-4-yl]amino}-3-(2,2,2-trifluoroethyl)pyrazolo[1,5-a]pyridin-2-yl)prop-2-yn-1-yl]-6-(pyrrolidin-1-yl)nicotinamide] | 1240 | 52
CN1CC[C@@H](Nc2cccc3c(CC(F)(F)F)c(C#CCNC(=O)c4ccc(N5CCCCC5)nc4)nn23)[C@@H](F)C1 [Compound 316, N-[3-(7-{[(3S,4R)-3-fluoro-1-methylpiperidin-4-yl]amino}-3-(2,2,2-trifluoroethyl)pyrazolo[1,5-a]pyridin-2-yl)prop-2-yn-1-yl]-6-(piperidin-1-yl)nicotinamide] | 2160 | 97
Cc1cc(C(=O)NCC#Cc2nn3c(N[C@@H]4CCN(C)C[C@@H]4F)cccc3c2CC(F)(F)F)[nH]c1C [Compound 317, N-[3-(7-{[(3S,4R)-3-fluoro-1-methylpiperidin-4-yl]amino}-3-(2,2,2-trifluoroethyl)pyrazolo[1,5-a]pyridin-2-yl)prop-2-yn-1-yl]-4,5-dimethyl-1H-pyrrole-2-carboxamide] | 1290 | 44
Cc1nc(C(=O)NCC#Cc2nn3c(N[C@@H]4CCN(C)C[C@@H]4F)cccc3c2CC(F)(F)F)cn1C [Compound 318, N-[3-(7-{[(3S,4R)-3-fluoro-1-methylpiperidin-4-yl]amino}-3-(2,2,2-trifluoroethyl)pyrazolo[1,5-a]pyridin-2-yl)prop-2-yn-1-yl]-1,2-dimethyl-1H-imidazole-4-carboxamide] | 1700 | 59
CN1CC[C@@H](Nc2cccc3c(CC(F)(F)F)c(C#CCNC(=O)c4cn(C)cn4)nn23)[C@@H](F)C1 [Compound 319, N-[3-(7-{[(3S,4R)-3-fluoro-1-methylpiperidin-4-yl]amino}-3-(2,2,2-trifluoroethyl)pyrazolo[1,5-a]pyridin-2-yl)prop-2-yn-1-yl]-1-methyl-1H-imidazole-4-carboxamide] | 1370 | 41
CC(C)n1cnc(C(=O)NCC#Cc2nn3c(N[C@@H]4CCN(C)C[C@@H]4F)cccc3c2CC(F)(F)F)c1 [Compound 320, N-[3-(7-{[(3S,4R)-3-fluoro-1-methylpiperidin-4-yl]amino}-3-(2,2,2-trifluoroethyl)pyrazolo[1,5-a]pyridin-2-yl)prop-2-yn-1-yl]-1-isopropyl-1H-imidazole-4-carboxamide] | 1560 | 28
